According to patent US11730712B2, “Functionalized long-chain hydrocarbon mono- and di-carboxylic acids and derivatives thereof, and their use for the prevention or treatment of disease” (ESPERVITA THERAPEUTICS, INC., priority 2021, dated 2023):
Where two headings read alike, the source gives them in different places.

Test system: C57BL6J mice on high fat high fructose diet
Experiment: Hepatic de novo lipogenesis (14C-glucose incorporation) in murine model of NASH
Type: in vivo, mouse
Conditions: for inhibition at 10 mg/kg / inhibition at 30 mg/kg / inhibition at 60 mg/kg: Mus musculus
Method: Experimental Protocol. FIG. 17A describes the study protocol. Mice were dosed daily for 7 days with a single dose of either Compound I-32 or Compound I-1 at a dose of 10 mg/kg, 30 mg/kg or 60 mg/kg. On the 8th day of the experiment mice receive final dose of Compound I-32 or Compound I-1, followed one hour later by an I.P. bolus of 14-C Glucose.
C57BL6J (8 weeks of age) were obtained for the Jackson Laboratory and fed a normal chow diet upon arrival. At ˜10 weeks of age, mice were given a diet containing high fat and high fructose (Rodent Diet with 40 kcal % Fat (Mostly Palm Oil), 20 kcal % fructose, and 0.02% cholesterol, obtained from Research Diets, Product Code: D19101102) and housed at thermoneutral conditions (26-29° C.). […] On the morning of day 8, animals received a final dose and after 1 hour […] (PerkinElmer) was administered at a concentration of 12 μCi per mouse in a volume of 0.1 ml in 0.9% saline I.P. One hour after ^14C-glucose was given, animals were anesthetized by I.P. injection of Ketamine/Xylazine (150 mg/12.4 mg/kg, respectively). Blood was drawn through cardiac puncture; the liver was removed, and a sample was from the left lobe and frozen in liquid nitrogen. Liver tissue was chipped on dry-ice and the weight of the chip weight recorded (30-50 mg of tissue). Liver tissue was homogenized in 1 ml of 2:1 chloroform:methanol using a bead homogenizer at 5000 rpm for 2×12 seconds. Samples were incubated with gentle shaking at 4° C. for 2 hours, vortexed for 2×12 seconds, and then centrifuge at 7000 rpm for 10 minutes at 4° C. The supernatant was transferred to a 1.5 ml Eppendorf and 200 μl of 0.9% saline was added. Samples were vortexed for 2×12 seconds and centrifuged at 3000 rpm for 10 minutes at 4° C. 200 μl of the lower organic phase was removed and added to 5 ml of scintillation fluid. The amount radioactivity in the sample was measured by scintillation counting. The number of disintegrations per minute (DPM) were determined over a 5-minute period and normalized to the amount of liver tissue. 5-10 μl of plasma obtained at termination was also counted and lipid/gram tissue counts were normalized to plasma counts. Statistical comparisons were carried out using a one-way ANOVA followed by Dunnett's post hoc test using GraphPad Prism 8 software. A p-value of less than or equal to 0.05 was used as the criterion of significance.

[1] = 10 mg/kg, read-out: % change from vehicle control, hepatic de novo lipogenesis (inhibition)
[2] = 30 mg/kg, read-out: % change from vehicle control, hepatic de novo lipogenesis (inhibition)
[3] = 60 mg/kg, read-out: % change from vehicle control, hepatic de novo lipogenesis (inhibition)

Structure (SMILES)	% change from vehicle control, hepatic de novo lipogenesis (inhibition) (30 mg/kg)	% change from vehicle control, hepatic de novo lipogenesis (inhibition) (60 mg/kg)	inhibition at 10 mg/kg [1]	inhibition at 30 mg/kg [2]	inhibition at 60 mg/kg [3]	% change from vehicle control, hepatic de novo lipogenesis (inhibition) (10 mg/kg)	inhibition at 10 mg/kg (10 mg/kg, 30 mg/kg and 100 mg/kg, all three doses tested (as printed in text), read-out: inhibition of liver lipogenesis)
CC(C)(CCCCc1ccc(CCCCC(C)(C)C(=O)O)cc1)C(=O)O [Compound I-1, 6-[4-(5-carboxy-5-methylhexyl)-phenyl]-2,2-dimethylhexanoic acid]	55.65%	68.96%	17.8%	56%	69%		
CC(C)(CCCCc1cccc(CCCCC(C)(C)C(=O)O)c1)C(=O)O [Compound I-32, 6-[3-(5-carboxy-5-methylhexyl)-phenyl]-2,2-dimethylhexanoic acid]	37.42%	52.90%	49%	37%	53%	48.79%	~50%
